pIC50: −log10 of the molar value. Active and inactive are the calls of the source. The calls are words filed in the database; no cut-off is given here.
Legend:
Type in all cases: functional, cell-based
[1] = test system: RAW264.7; test: Inhibition of LPS-induced nitric oxide production in mouse RAW264.7 cells after 20 hrs by Griess assay; conditions: RAW264.7, 20 h
[2] = test system: A498; test: Cytotoxicity against human A498 cells up to 100 uM
[3] = test system: PANC-1; test: Cytotoxicity against human PANC1 cells up to 100 uM
[4] = test system: MiaPaCa; test: Cytotoxicity against human MiaPaCa cells up to 100 uM

Structure (SMILES) | pIC50 [1] | Activity [2] | Activity [3] | Activity [4]
Cc1ccc2c(c1)/C(=C/C(C)C)C[C@]2(O)CO | 4.72 | inactive | inactive | inactive
Cc1ccc2c(c1)/C(=C/C(C)C)C=C2CO | 4.64 | inactive | inactive | inactive
